Measurements: US20040053847A1, “Diastereomeric peptitdes and pharmaceutical compositions comprising them” (priority 2000, published 2004)
≈ marks a conversion by molar mass, not a printed value. Square brackets hold non-standard residues; d marks the D form. Peptide text beside a SMILES is read from it.

What was measured:
[1] = tested on: Aspergillus niger ATCC 9642; assay type: cell-based; details: ATCC 9642
Procedure: (§1) The antifungal activity of the diastereomers was examined in sterile 96-well plates (Nunc F96 microtiter plates) in a final volume of 200 μL as follows: 100 μl of a suspension containing fungi at concentration of 1×10^4 Colony-Forming Units (CFU)/ml in culture medium (RPMI 1640, 0.165 M MOPS pH 7.0, with L-glutamine, without NaHCO3) was added to 100 μl of water containing the peptide in serial 2-fold dilutions in water. The fungi were incubated in the presence of the diastereomeric peptides for 24-48 h at 35° C. in a Binder KB115 incubator under agitation. Growth inhibition was determined by measuring the absorbance at 620 nm with a Microplate autoreader E1309 (Bio-tek Instruments). Antifungal activity is expressed as the minimal inhibitory concentration (MIC), the concentration at which 100% inhibition of growth was observed after the incubation time mentioned above. The fungi used were: Aspergillus niger ATCC 9642, Candida albicans ATCC 10231 and Cryptococcus neoformans ATCC 66031.

[2] = tested on: Candida albicans ATCC 10231; assay type: cell-based; details: ATCC 10231
Procedure: as §1

[3] = tested on: Cryptococcus neoformans ATCC 66031; assay type: cell-based
Procedure: as §1

[4] = Cell selectivity, Trypan blue cell viability, LC50; assay type: cell-based, mouse; details: mouse, NIH-3T3 fibroblasts; 50% cell mortality after 24 h incubation, medium without serum; read-out: Lethal Concentration (LC50), NIH-3T3 fibroblasts
[5] = tested on: A549 lung carcinoma; assay type: cell-based, human; details: 24 h
Procedure: (§2) Aliquots of 100 μl of tumor cell suspension (about 2.5-5×10^3/well) were placed in 96-well microtiter plates in an atmosphere of 5% CO2 at 37° C. […] At the end of incubation, 20 μl of AlamarBlue 75% reagent was added to each well for another 6-hour incubation before detection of cell viability by fluorescence intensity. Fluorescence intensity was measured using a Spectraflour Plus plate reader with excitation at 530 nm and emission at 590 nm. The assays were used to detect changes in cell proliferation based on the ability of viable cells to cause AlamarBlue to change from its oxidized (non-fluorescent, blue) to a reduced (fluorescent, red) form. With the results obtained from the AlamarBlue reaction, cell proliferation can be quantified and metabolic activity of viable cells can be examined.

[6] = tested on: HT-29 colon adenocarcinoma; assay type: cell-based, human; details: 24 h
Procedure: as §2

[7] = tested on: MCF-7 breast adenocarcinoma; assay type: cell-based, human; details: 24 h
Procedure: as §2

[8] = tested on: PC-3 prostate adenocarcinoma; assay type: cell-based, human; details: 24 h
Procedure: as §2

[9] = tested on: SK-MEL- (ATCC HTB-70) malignant melanoma; assay type: cell-based, human; details: 24 h
Procedure: as §2

[10] = tested on: human breast MCF-7 cells; assay: Xenograft model of human breast MCF-7 cells in SCID mice; assay type: in vivo
Procedure: The in-vivo anticancer assay was conducted on SCID (Severe Combined Immune Deficiency) mice using the xenograft model of human breast MCF-7 cells. Groups of 6 SCID female mice weighing 18-20 g (6-week old), bred in an animal isolator (IVC racks under specific pathogen-free (SPF) conditions at 24±1° C., were used. Viable human breast carcinoma MCF-7 cells (ATCC HTB-22−1×10^7 cells in 0.2 ml of PBS) were injected subcutaneously (s.c.) into the dorsal side of SCID mice. 50 μg/mouse of estradiol benzoate was injected s.c. weekly as a supplement for 4 weeks. […] Mitomycin at a dose of 2 mg/kg was administered intraperitoneally (IP) twice a week for 5 doses. The tumor size, body weight and the signs of overt animal toxicity after each treatment were recorded and observed. At the end of the experiment, hematological analysis was carried out.

[11] = tested on: B16 F10 mouse melanoma cell line; assay: In vitro anticancer activity, Trypan blue cell viability, LC50; details: 50% cell mortality after 24 h incubation, medium without serum
Procedure: The anticancer activity of the diastereomers 1, 2, 8, 9 and 10 was examined against B16 F10 mouse melanoma cell line. Melanoma cells were grown in RPMI-1640 medium supplemented with 10% fetal calf serum and antibiotics, at 37° C., in humidified atmosphere at 5% CO2 and 95% air. In addition, the cell-selectivity of the diastereomeric peptides was studied by examining their effect on NIH-3T3 normal fibroblasts cell line. NIH-3T3 mouse fibroblasts cells were grown in DMEM medium supplemented with 10% bovine calf serum and antibiotics under the same conditions as described above for B16 F10 mouse melanoma cells. Melanoma cells (2×10^5 cells ml^−1) or NIH-3T3 cells (2.5×10^5 cells ml^−1) were seeded in tissue culture plates (3.5 cm). After 48 h, cells were washed thrice with the corresponding medium. Then the cells were incubated at 37° C. in medium (without serum and antibiotics) in the presence of the tested diastereomeric peptides dissolved in PBS, at different concentrations. […] Following 24 h of incubation, the cells were harvested with trypsin (0.25%)-EDTA (0.05%) and centrifuiged for 10 min at 270×g. The precipitated cells were suspended in the corresponding medium and counted in a hemocytometer (Neubauer). Cell viability was determined by Trypan blue dye exclusion.

[12] = Hematology analysis on Day 25, MEAN ± SEM
[13] = hematological analysis at the end of the assay
[14] = peptide 9 3 mg/kg IV, mitomycin 2 mg/kg IP

**Q.** With CC(C)C[C@H](NC(=O)[C@H](CC(C)C)NC(=O)[C@@H](CCCCN)NC(=O)[C@H](CC(C)C)NC(=O)[C@H](CC(C)C)NC(=O)[C@H](CCCCN)NC(=O)[C@@H](CCCCN)NC(=O)[C@@H](CC(C)C)NC(=O)[C@H](CC(C)C)NC(=O)[C@@H](CCCCN)NC(=O)[C@H](CCCCN)NC(=O)[C@H](CC(C)C)NC(=O)[C@@H](CC(C)C)NC(=O)[C@H](CCCCN)NC(=O)[C@@H](N)CC(C)C)C(N)=O [Peptide 4, [D]-L^3,8,K^6,9,13-K6L9] (H-LK[dL]LK[dK]L[dL][dK]KLL[dK]LL-NH2; N-terminus assumed) as the compound, how does the “MIC, A. niger ATCC 9642” value [1] read?
**A.** 180 µg/mL (≈ 99.7 µM)

**Q.** What about the “MIC, C. albicans ATCC 10231” value [2] of the same compound?
**A.** 50 µg/mL (≈ 27.7 µM)

**Q.** And the “MIC, C. neoformans ATCC 66031” value [3]?
**A.** 5.6 µg/mL (≈ 3.1 µM)

**Q.** Which CC50 at 24 h [4] does the source give for CC(C)C[C@H](NC(=O)[C@H](CC(C)C)NC(=O)[C@@H](CCCCN)NC(=O)[C@@H](CCCCN)NC(=O)[C@H](CC(C)C)NC(=O)[C@@H](CC(C)C)NC(=O)[C@H](CCCCN)NC(=O)[C@H](CC(C)C)NC(=O)[C@@H](CC(C)C)NC(=O)[C@H](CC(C)C)NC(=O)[C@@H](N)CCCCN)C(=O)N[C@@H](CCCCN)C(=O)N[C@H](CC(C)C)C(=O)N[C@@H](CC(C)C)C(=O)N[C@@H](CCCCN)C(N)=O [Peptide 10, [D]-L^3,6,13,K^8,9,13-K6L9] (H-KL[dL]LK[dL]L[dK][dK]LLK[dL]LK-NH2; N-terminus assumed) here?
**A.** 140 µg/mL (≈ 77.6 µM)

**Q.** And the IC50 [5]?
**A.** 2.4 µM

**Q.** What about the IC50 [6] of the same compound?
**A.** 15 µM

**Q.** And the IC50 [7]?
**A.** 3.6 µM

**Q.** And the IC50 [8]?
**A.** 8.9 µM

**Q.** And the IC50 [9]?
**A.** 2.6 µM

**Q.** With CC(C)C[C@H](NC(=O)[C@H](CC(C)C)NC(=O)[C@@H](CCCCN)NC(=O)[C@H](CC(C)C)NC(=O)[C@H](CC(C)C)NC(=O)[C@H](CCCCN)NC(=O)[C@@H](CCCCN)NC(=O)[C@@H](CC(C)C)NC(=O)[C@H](CC(C)C)NC(=O)[C@H](CCCCN)NC(=O)[C@H](CCCCN)NC(=O)[C@H](CC(C)C)NC(=O)[C@@H](CC(C)C)NC(=O)[C@H](CCCCN)NC(=O)[C@@H](N)CC(C)C)C(N)=O [Peptide 3, [D]-L^3,8,K^9,13-K6L9] (H-LK[dL]LKKL[dL][dK]KLL[dK]LL-NH2; N-terminus assumed) as the compound, how does the “MIC, A. niger ATCC 9642” value [1] read?
**A.** 90 µg/mL (≈ 49.9 µM)

**Q.** What about the “MIC, C. albicans ATCC 10231” value [2] of the same compound?
**A.** 40 µg/mL (≈ 22.2 µM)

**Q.** And the “MIC, C. neoformans ATCC 66031” value [3]?
**A.** 2.8 µg/mL (≈ 1.55 µM)

**Q.** Which “MIC, A. niger ATCC 9642” value [1] does the source give for CC(C)C[C@H](NC(=O)[C@H](CCCCN)NC(=O)[C@@H](CC(C)C)NC(=O)[C@H](CC(C)C)NC(=O)[C@@H](N)CCCCN)C(=O)N[C@@H](CC(C)C)C(=O)N[C@H](CCCCN)C(=O)N[C@H](CCCCN)C(=O)N[C@@H](CC(C)C)C(=O)N[C@H](CC(C)C)C(=O)N[C@@H](CCCCN)C(=O)N[C@@H](CC(C)C)C(=O)N[C@H](CC(C)C)C(=O)N[C@@H](CC(C)C)C(=O)N[C@@H](CCCCN)C(N)=O [Peptide 7, [D]-L^3,10,13,K^7,8-K6L9] (H-KL[dL]KLL[dK][dK]L[dL]KL[dL]LK-NH2; N-terminus assumed) here?
**A.** 50 µg/mL (≈ 27.7 µM)

**Q.** And the “MIC, C. albicans ATCC 10231” value [2]?
**A.** 50 µg/mL (≈ 27.7 µM)

**Q.** What about the “MIC, C. neoformans ATCC 66031” value [3] of the same compound?
**A.** 2.9 µg/mL (≈ 1.61 µM)

**Q.** What does the source list for CO[C@@]12[C@H](COC(N)=O)C3=C(C(=O)C(C)=C(N)C3=O)N1C[C@@H]1N[C@@H]12 [Mitomycin C, mitomycin C]?
**A.** PLT [10, 12]: 396000 µL⁻¹; RBC [10, 12]: 10.55 ± 0.37 × 10^6/μl; WBC [10, 12]: 670 µL⁻¹; Reduction of RBC [10, 13]: significant reduction; Reduction of WBC and platelets [10, 13]: significant reduction; Effect on tumor growth (FIG. 1) ([10]; peptide 9 3 mg/kg IV twice a week, 6 doses, mitomycin 2 mg/kg IP twice a week, 5 doses): more potent than peptide 9; Body weight and condition of animals (FIG. 2) [10, 14]: signs of weakness and loss of weight; Side effects in treated animals [10, 14]: severe side effects throughout the assay period

**Q.** For CC(C)C[C@H](NC(=O)CN)C(=O)N[C@H](CC(C)C)C(=O)N[C@@H](CC(C)C)C(=O)N[C@@H](CCCNC(=N)N)C(=O)N[C@H](CC(C)C)C(=O)N[C@@H](CC(C)C)C(=O)N[C@H](CCCCN)C(=O)N[C@H](CCCCN)C(=O)N[C@@H](CC(C)C)C(=O)N[C@@H](CC(C)C)C(=O)N[C@@H](CCCNC(=N)N)C(=O)N[C@H](CC(C)C)C(=O)N[C@@H](CC(C)C)C(=O)N[C@@H](CCCCN)C(=O)N[C@@H](CCCCN)C(N)=O [Peptide 5, [D]-L^3,6,13,K^8,9-GK4R2L9] (H-GL[dL]LR[dL]L[dK][dK]LLR[dL]LKK-NH2; N-terminus assumed), which “MIC, A. niger ATCC 9642” value [1] is on record?
**A.** 50 µg/mL (≈ 26.1 µM)

**Q.** What about the “MIC, C. albicans ATCC 10231” value [2] of the same compound?
**A.** 50 µg/mL (≈ 26.1 µM)

**Q.** What about the “MIC, C. neoformans ATCC 66031” value [3] of the same compound?
**A.** 3 µg/mL (≈ 1.56 µM)

**Q.** Which results are given for CC(C)C[C@H](NC(=O)CN)C(=O)N[C@H](CC(C)C)C(=O)N[C@@H](CCCCN)C(=O)N[C@@H](CC(C)C)C(=O)N[C@@H](CC(C)C)C(=O)N[C@H](CCCCN)C(=O)N[C@H](CCCCN)C(=O)N[C@@H](CC(C)C)C(=O)N[C@H](CC(C)C)C(=O)N[C@@H](CCCCN)C(=O)N[C@@H](CC(C)C)C(=O)N[C@H](CC(C)C)C(=O)N[C@@H](CC(C)C)C(=O)N[C@@H](CCCCN)C(=O)N[C@@H](CCCCN)C(N)=O [Peptide 8, [D]-L^3,10,13,K^7,8-GK6L9] (H-GL[dL]KLL[dK][dK]L[dL]KL[dL]LKK-NH2; N-terminus assumed)?
**A.** MIC, A. niger ATCC 9642 [1]: 30 µg/mL (≈ 16.1 µM); MIC, C. albicans ATCC 10231 [2]: 30 µg/mL (≈ 16.1 µM); MIC, C. neoformans ATCC 66031 [3]: 1.5 µg/mL (≈ 0.806 µM); Lethal Concentration (LC50), B16-F10 melanoma [11]: 9 µg/mL; CC50 at 24 h [4]: 30 µg/mL (≈ 16.1 µM)
